Measurements reported in paper PMC3563715 (Molecular pharmaceutics, 2013).
Like-named read-outs stand apart in the source and are kept apart here.

Key:
[1] = tested on: collagen induced arthritis (CIA); format: in vivo, DBA/1J mice; conditions: single IV dose on day 22, observed to day 58, 6 mice/group
[2] = tested on: collagen induced arthritis (CIA); test: Efficacy against collagen induced arthritis, subcutaneous treatment; format: in vivo, DBA/1J mice; conditions: 5.0 nmol/animal SC on day 22 and 34; between days 34 and 40
[3] = tested on: systemic arterial pressure; test: Systemic arterial pressure; format: in vivo, CIA mice; conditions: single IV injection, regardless of dose
[4] = cited from earlier work

In the case of “Vasoactive intestinal peptide [free VIP]”, the “paw thickness and clinical arthritis score” value ([1]; 0.5 nmol/animal) is reported as “did not show any therapeutic efficacy”, the “paw thickness and clinical arthritis score” value ([1]; 1.0 nmol/animal) is reported as “did not show any therapeutic efficacy” and the “duration of disease suppression after cessation of treatment” value [2] is reported as “about a week”. For the same substance, the “time to full recovery of SAP to the norm” value [3] was “approximately one hour” and the in vivo half-life [4] was “few minutes”.
